Like-named read-outs stand apart in the source and are kept apart here.
Assays:
human monocytes = assay: Human monocyte cytokine secretion assay (LPS-stimulated); format: cell-based; settings: average percent of stimulated IL-6 secretion from human monocytes at 10 μM of test compound
Experimental: Peripheral blood from healthy human volunteers was collected and the monocytes isolated via Ficoll-paque density centrifugation. […] The cells were allowed to pre-incubate with test compound at the indicated concentration for 30 minutes (37° C., 5% CO2, humidified air); after which the supernatant was removed and media containing compound and 1 ng/mL LPS was added. Cells were allowed to incubate with compounds and LPS for 4 hours at 37° C. after which the supernatant was removed and stored at −80° C. Cytokine concentrations in the supernatant were determined using commercially available Bio-Rad Bio-plex™ kits according the manufacturer's instructions.

p70S6K human enzyme = target: T1, p70S6K human enzyme (Homo sapiens, UniProt P23443, T412E); assay: p70S6K inhibition assay (IMAP FP); format: biochemical;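 also: kinase reaction run at room temperature, phosphorylated substrate captured on IMAP beads and read as fluorescence polarization in mP, IC50 then converted to Ki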
T1 construct: purchased Upstate Chemicon 14-486
Experimental: Inhibition of Akt3 and p70S6K activity was determined using the IMAP™ FP Progressive Binding Kit (Molecular Devices product number R8127). […] Following the pre-incubation, 30 μM ATP was added to initiate the reaction. After 60 minutes at RT, Molecular Devices IMAP™ binding solution was added to bind phosphorylated substrate. After 30 minutes of incubation in the presence of the IMAP™ beads the fluorescence polarization was read and the ratio was reported as mP. IC50 results were calculated using the Prism software from Graphpad. The Ki values were determined according to the following formula: Ki=IC50/(1+([ATP Challenge]/EC50 ATP)).

[1] = Compound plasma concentrations in unsensitized mice at 15 min post administration; format: in vivo; settings: mouse, 15 μmol/kg; mean compound plasma concentration in mice at 15 minutes post oral administration; read-out: Mouse Oral PK
Experimental: Additionally, compound concentrations were determined in the plasma and lungs of male, ovalbumin-sensitized, Balb/c mice from a murine model of asthma. Test compounds were formulated in water or 1% polysorbate 80 and dosed at 15 μmol/kg for intraperitoneal (IP) or oral (PO) administration or formulated for intratracheal (IT) administration and dosed at 5 μmol/kg, which directly targets the lungs. Following completion of the in vivo study, mice were euthanized and blood and plasma collected approximately 2.5-3 hours post administration of test compound for bronchodialator (BD) studies and 24 hours post administration for anti-inflamatory (AI) studies. Lungs were homogenized in Matrix A lysing tubes using a FastPrep 24 tissue and cell homogenizer (MP Biomedicals, Solon, Ohio). Both plasma samples and lung extracts were assayed for compound concentrations using an on-line, solid phase extraction LC/MS/MS system.

ROCK2 = target: T2, ROCK2 (Homo sapiens, UniProt O75116); assay: Rho kinase inhibition assay (IMAP fluorescence polarization), ROCK2; format: biochemical;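 also: kinase reaction started with 10 µM ATP and run 60 min at room temperature, then phosphorylated substrate captured on IMAP beads for 30 min and fluorescence polarization read in mP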
T2 construct: purchased Upstate/Chemicon 14-451
Experimental: (§2) Following the pre-incubation, 10 μM ATP was added to initiate the reaction. After 60 minutes at room temperature, Molecular Devices IMAP™ binding solution was added to bind phosphorylated substrate. After 30 minutes of incubation in the presence of the IMAP™ beads, the fluorescence polarization was read and the ratio was reported as mP. IC50 values for compounds and EC50 values for ATP were calculated using the Prism software from Graphpad.

[2] = tested on: A-10 rat thoracic aorta cells; assay: PDGF-stimulated smooth muscle cell proliferation assay (BrdU incorporation); format: cell-based; settings: A-10 cells, 10 ng/mL PDGF, BrdU incorporation, percent of total challenge-stimulated proliferation;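 also: cells kept in serum-free medium, BrdU allowed to incorporate for 24 h, then incorporated label detected fluorometrically with an anti-BrdU antibody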
ROCK1 = target: T3, ROCK1 (Homo sapiens, UniProt Q13464); assay: Rho kinase inhibition assay (IMAP fluorescence polarization), ROCK1; format: biochemical;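 also: kinase reaction run 60 min at room temperature, then phosphorylated substrate captured on IMAP beads for 30 min, with fluorescence polarization read in mP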
T3 construct: purchased Upstate/Chemicon 14-601
Experimental: as §2

Akt3 human enzyme = target: T4, Akt3 human enzyme (Homo sapiens, UniProt Q9Y243); assay: Akt3 inhibition assay (IMAP FP); format: biochemical;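 also: kinase reaction run 60 min at room temperature after 30 µM ATP start, phosphorylated substrate captured on IMAP beads and read as fluorescence polarization (mP)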
T4 construct: purchased Upstate Chemicon 14-502

[3] = Rat oral pharmacokinetics (plasma); format: in vivo; settings: 20-30 μmol/kg
Experimental: Plasma (EDTA K2 anticoagulant) was collected from male, cannulated, CD Sprague Dawley rats to determine the pharmacokinetics of formulations containing compound inhibitors of Rho kinase. Each animal was dosed orally with a 4 ml/kg solution or suspension of each test compound in 10 mM acetate buffered saline, pH 4.5 at a final concentration range of 20-30 μmol/kg. Blood was collected at 0.25, 0.5, 1, 2, 4, 6, 8, and 24 hours. Plasma samples were assayed for the concentration of the test compound using an on-line, solid phase extraction LC/MS/MS analysis system.
Samples were analyzed on a QSTAR Elite, hybrid quadrupole time-of-flight mass spectrometer (Applied Biosystems, Framingham, Mass.) coupled with a Symbiosis Pharma integrated, on-line SPE-HPLC system (Spark Holland Inc., Plainsboro, N.J.). Analyst QS 2.0 software was used for instrument control, data acquisition and processing. […] Mobile Phase A consisted of 0.1% ammonium hydroxide in water and Mobile Phase B consisted of 0.1% formic acid in acetonitrile. Pharmacokinetic analyses were performed using WinNonlin software version 5.2 (Pharsight Corporation, Mountain View, Calif.).
As determined from the plasma concentration versus time curves, the time to peak and peak exposure are represented by the values Tmax and Cmax, respectively. The AUC values (nM*hr) shown were calculated as the areas under the plasma concentration versus time curves from time zero through the time of the last observable value and represent the total exposure of the compound over the course of the study. Half-life values or the amount of time required for the plasma levels of the compound to decline to half the initial value are represented as t½.

[4] = tested on: ova-sensitized, ova-challenged mice; assay: Prevention of airway hyperreactivity (Penh, methacholine) in mouse ovalbumin sensitization model; format: in vivo; settings: for log10AUC (Penh): 0.5 μmol/kg/intratracheal, days 27 to 31; for airway hyperreactivity: intratracheal once a day during days 27 to 31
Experimental: The anti-inflammatory dosing paradigm consists of dosing the animals once a day starting on day 27 and finishing on either day 30 or 31 (1 hr prior to the aerosolized ovalbumin challenges on days 28 to 30) but not on day 32 when hyperreactivity evaluation occurs. […] Exposure to the methacholine doses consisted of a 3 minute period during which a nebulizer was aerosolizing the methacholine and an additional 3 minute period following the cessation of nebulization. […] Enhanced pause (Penh), a unitless index of airway hyperreactivity, is derived from the expiratory side of the respiratory waveform measured via the plethysmograph and is used as an indirect measure of airway resistance and hyperreactivity. […] Following the methacholine dose response, BALF was collected and all animals were anesthetized, bled and euthanized. […] The Penh value at each of the dose levels of methacholine represents the 6-minute average response. Change from baseline (CFB) in Penh was calculated at each methacholine dose and the area under the curve (AUC) for these CFB values was calculated using the trapezoidal rule. This same approach was applied for each mouse across multiple experiments. […] Data from equal experimental conditions across experiments performed on different days were pooled for statistical analysis and data reporting. […] A random intercept for each experiment was assumed to account for possible similarities of the results obtained from a given experiment (i.e., as a “blocking effect”). […] For FIG. 9, linear AUC values from compound treated mice were reported as a percent of linear AUC values from vehicle-treated ovalbumin-sensitized/ovalbumin-challenged (asthmatic) mice.

IRAK1 = target: T5, IRAK1 (Homo sapiens, UniProt P51617); assay: Kinase panel screen (KinaseProfiler), IRAK1; format: biochemical; settings: 10 μM ATP; for activity at 1 µM: 1 μM test compound, read-out: IRAK1 Percent inhibition, 1 μM; for activity at 10 µM: 10 μM test compound, read-out: IRAK1 Percent inhibition, 10 μM
T5 construct: purchased Upstate, Millipore Bioscience Division (KinaseProfiler service)
Experimental: (§1) Compounds of Formulae I and II were examined for activity against a selected panel of kinases using the KinaseProfiler™ enzyme profiling services (Upstate, Millipore Bioscience Division). Percent kinase activity at 10 μM and 1 μM test compound and 10 μM ATP was determined against 40 wild-type recombinant human kinases according to Upstate's standard protocol: ASK1, BTK, CSK, c-RAF, GCK, GSK3β, IKKα, IKKβ, IRAK1, IRAK4, JNK1α1, JNK2α2, JNK3, ERK1, ERK2, MAPKAP-K2, MAPKAP-K3, MEK1, MKK4, MKK6, MKK7β, Mnk2, MSK1, PAK3, PDK1, PRAK, ROCK1, Rsk2, SAPK2a, SAPK2b, SAPK3, SAPK4, SRPK1, SRPK2, Syk, TAK1, TBK1, PI3-Kβ, PI3-Kγ, PI3-Kδ.

IRAK4 = target: T6, IRAK4 (Homo sapiens, UniProt Q9NWZ3); assay: Kinase panel screen (KinaseProfiler), IRAK4; format: biochemical; settings: 10 μM ATP
T6 construct: purchased Upstate, Millipore Bioscience Division (KinaseProfiler service)
T6 sequence (Q9NWZ3 1-460): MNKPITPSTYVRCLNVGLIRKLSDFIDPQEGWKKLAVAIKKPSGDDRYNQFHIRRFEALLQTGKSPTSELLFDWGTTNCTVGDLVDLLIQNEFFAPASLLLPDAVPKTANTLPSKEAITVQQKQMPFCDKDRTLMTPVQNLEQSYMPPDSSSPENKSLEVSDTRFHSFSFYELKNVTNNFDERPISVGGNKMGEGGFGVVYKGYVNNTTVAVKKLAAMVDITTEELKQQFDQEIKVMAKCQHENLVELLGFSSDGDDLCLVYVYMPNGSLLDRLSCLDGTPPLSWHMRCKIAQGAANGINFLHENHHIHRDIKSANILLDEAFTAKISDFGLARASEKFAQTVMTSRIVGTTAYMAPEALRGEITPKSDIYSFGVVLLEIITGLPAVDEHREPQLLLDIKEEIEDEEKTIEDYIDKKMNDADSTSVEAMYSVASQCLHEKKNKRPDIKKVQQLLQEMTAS
Experimental: as §1

Mnk2 = target: T7, Mnk2 (Homo sapiens, UniProt Q9HBH9); assay: Kinase panel screen (KinaseProfiler), Mnk2; format: biochemical; settings: 10 μM ATP; for activity at 1 µM: 1 μM test compound, read-out: Mnk2 Percent inhibition, 1 μM; for activity at 10 µM: 10 μM test compound, read-out: Mnk2 Percent inhibition, 10 μM
T7 construct: purchased Upstate, Millipore Bioscience Division (KinaseProfiler service)
Experimental: as §1

ERK2 = target: T8, ERK2 (Homo sapiens, UniProt P28482); assay: Kinase panel screen (KinaseProfiler), ERK2; format: biochemical
T8 construct: purchased Upstate, Millipore Bioscience Division (KinaseProfiler service)
Experimental: as §1

GCK = target: T9, GCK (Homo sapiens, UniProt Q12851); assay: Kinase panel screen (KinaseProfiler), GCK; format: biochemical; settings: for activity at 10 µM: 10 μM test compound, 10 μM ATP, read-out: GCK Percent inhibition, 10 μM
T9 construct: purchased Upstate, Millipore Bioscience Division (KinaseProfiler service)
T9 sequence (Q12851 1-820): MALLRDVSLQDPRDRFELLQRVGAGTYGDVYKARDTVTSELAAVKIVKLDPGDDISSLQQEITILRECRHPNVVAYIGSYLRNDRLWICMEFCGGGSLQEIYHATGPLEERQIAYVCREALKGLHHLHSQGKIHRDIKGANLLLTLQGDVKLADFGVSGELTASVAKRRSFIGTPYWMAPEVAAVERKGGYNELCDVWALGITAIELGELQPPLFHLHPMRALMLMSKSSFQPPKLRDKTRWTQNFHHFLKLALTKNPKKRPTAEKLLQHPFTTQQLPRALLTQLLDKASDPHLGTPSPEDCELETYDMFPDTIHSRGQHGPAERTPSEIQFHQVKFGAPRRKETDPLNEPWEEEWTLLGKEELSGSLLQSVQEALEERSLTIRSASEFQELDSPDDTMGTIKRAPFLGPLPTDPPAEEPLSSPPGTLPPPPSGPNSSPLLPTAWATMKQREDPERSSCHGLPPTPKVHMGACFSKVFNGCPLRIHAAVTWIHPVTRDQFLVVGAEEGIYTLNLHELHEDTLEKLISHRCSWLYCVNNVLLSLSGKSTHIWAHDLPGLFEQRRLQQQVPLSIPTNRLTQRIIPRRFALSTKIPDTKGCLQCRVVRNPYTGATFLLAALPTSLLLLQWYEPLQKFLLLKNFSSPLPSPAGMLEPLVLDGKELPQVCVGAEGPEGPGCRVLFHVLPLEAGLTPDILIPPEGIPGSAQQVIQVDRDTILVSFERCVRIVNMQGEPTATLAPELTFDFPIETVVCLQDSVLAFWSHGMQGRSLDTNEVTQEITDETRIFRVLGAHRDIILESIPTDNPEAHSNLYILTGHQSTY
Experimental: as §1

ERK1 = target: T10, ERK1 (Homo sapiens, UniProt P27361); assay: Kinase panel screen (KinaseProfiler), ERK1; format: biochemical
T10 construct: purchased Upstate, Millipore Bioscience Division (KinaseProfiler service)
Experimental: as §1

[5] = 30 μM ATP, Ki=IC50/(1+([ATP Challenge]/EC50 ATP)), read-out: p70S6K Ki, Avg
[6] = average Ki, read-out: p70S6K Ki
[7] = 10 μM ATP, read-out: ROCK2 Ki, Avg
[8] = 30 μM ATP, Ki=IC50/(1+([ATP Challenge]/EC50 ATP)), read-out: Akt3 Ki, Avg

T8 sequence (P28482 whole entry): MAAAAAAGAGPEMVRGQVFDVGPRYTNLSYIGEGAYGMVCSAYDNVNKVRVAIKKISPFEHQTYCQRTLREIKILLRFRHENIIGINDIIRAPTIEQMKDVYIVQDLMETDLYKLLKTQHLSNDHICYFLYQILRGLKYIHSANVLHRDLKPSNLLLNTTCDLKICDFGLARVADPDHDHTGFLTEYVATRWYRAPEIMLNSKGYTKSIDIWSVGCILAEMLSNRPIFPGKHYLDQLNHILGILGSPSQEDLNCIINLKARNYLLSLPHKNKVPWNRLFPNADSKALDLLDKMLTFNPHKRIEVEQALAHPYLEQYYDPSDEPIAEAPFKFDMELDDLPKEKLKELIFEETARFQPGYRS
T10 sequence (P27361 whole entry): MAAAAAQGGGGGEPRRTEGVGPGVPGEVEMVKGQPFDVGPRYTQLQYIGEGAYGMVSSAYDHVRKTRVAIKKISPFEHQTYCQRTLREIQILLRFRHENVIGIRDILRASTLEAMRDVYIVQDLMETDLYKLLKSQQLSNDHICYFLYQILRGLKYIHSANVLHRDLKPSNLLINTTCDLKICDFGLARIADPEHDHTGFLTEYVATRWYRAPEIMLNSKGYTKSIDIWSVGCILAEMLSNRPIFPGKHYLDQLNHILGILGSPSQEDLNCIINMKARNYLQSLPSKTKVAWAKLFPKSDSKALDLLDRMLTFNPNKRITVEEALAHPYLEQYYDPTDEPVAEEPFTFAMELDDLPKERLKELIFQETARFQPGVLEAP
T1 sequence (P23443 1-421 T412E limits assumed): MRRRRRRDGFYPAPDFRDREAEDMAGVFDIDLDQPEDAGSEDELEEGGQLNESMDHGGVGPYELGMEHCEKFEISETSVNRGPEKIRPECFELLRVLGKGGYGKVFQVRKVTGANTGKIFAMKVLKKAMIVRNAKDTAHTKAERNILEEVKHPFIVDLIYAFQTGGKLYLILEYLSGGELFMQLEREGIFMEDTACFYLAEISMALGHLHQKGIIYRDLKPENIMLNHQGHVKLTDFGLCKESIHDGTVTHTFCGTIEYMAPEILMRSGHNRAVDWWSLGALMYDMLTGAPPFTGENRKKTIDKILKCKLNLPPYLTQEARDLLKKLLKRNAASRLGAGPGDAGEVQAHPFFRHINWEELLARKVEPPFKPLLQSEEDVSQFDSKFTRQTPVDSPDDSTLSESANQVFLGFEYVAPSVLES
T7 sequence (Q9HBH9 whole entry): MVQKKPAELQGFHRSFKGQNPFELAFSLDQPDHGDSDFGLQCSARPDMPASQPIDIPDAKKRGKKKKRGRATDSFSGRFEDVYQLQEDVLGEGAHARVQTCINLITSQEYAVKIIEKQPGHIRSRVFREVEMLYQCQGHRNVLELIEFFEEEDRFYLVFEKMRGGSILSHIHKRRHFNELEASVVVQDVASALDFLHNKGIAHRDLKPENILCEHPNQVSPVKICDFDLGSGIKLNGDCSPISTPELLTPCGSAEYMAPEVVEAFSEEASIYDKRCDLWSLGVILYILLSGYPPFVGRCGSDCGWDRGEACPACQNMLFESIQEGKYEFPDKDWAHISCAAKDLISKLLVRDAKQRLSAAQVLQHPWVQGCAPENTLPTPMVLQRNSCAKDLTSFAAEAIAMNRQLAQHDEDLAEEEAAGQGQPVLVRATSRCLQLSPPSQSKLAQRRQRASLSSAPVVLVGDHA
T5 sequence (P51617 whole entry): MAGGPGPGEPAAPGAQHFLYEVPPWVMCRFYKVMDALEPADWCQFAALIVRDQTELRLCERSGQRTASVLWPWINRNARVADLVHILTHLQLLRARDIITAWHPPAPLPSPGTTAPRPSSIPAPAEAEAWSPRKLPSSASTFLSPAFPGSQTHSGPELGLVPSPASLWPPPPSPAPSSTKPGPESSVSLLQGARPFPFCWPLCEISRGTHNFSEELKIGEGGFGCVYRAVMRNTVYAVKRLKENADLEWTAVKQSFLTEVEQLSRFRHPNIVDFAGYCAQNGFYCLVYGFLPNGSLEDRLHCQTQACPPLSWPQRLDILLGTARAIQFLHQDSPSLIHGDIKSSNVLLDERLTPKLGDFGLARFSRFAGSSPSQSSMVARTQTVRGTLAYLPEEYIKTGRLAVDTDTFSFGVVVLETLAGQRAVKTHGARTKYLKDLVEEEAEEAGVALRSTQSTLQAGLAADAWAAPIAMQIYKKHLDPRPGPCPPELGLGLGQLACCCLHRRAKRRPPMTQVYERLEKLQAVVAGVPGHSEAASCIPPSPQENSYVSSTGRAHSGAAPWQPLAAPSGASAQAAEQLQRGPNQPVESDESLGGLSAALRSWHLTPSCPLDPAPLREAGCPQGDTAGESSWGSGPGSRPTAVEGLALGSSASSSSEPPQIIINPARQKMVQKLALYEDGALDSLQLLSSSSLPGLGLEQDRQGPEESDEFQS
T3 sequence (Q13464 17-535 limits assumed): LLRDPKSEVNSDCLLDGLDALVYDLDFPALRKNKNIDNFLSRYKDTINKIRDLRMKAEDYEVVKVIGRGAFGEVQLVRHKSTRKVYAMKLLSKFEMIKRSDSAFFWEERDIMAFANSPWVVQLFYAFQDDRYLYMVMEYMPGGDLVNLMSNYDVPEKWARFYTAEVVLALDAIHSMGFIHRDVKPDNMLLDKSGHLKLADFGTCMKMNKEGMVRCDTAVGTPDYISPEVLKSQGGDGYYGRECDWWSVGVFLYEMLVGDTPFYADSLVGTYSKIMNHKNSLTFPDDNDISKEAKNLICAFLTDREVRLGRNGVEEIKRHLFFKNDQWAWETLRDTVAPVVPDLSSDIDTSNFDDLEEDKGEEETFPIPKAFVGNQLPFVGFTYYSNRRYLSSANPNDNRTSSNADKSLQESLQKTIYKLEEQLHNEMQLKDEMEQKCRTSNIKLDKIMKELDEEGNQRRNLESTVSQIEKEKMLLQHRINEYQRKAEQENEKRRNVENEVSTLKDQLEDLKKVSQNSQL
T4 sequence (Q9Y243 whole entry): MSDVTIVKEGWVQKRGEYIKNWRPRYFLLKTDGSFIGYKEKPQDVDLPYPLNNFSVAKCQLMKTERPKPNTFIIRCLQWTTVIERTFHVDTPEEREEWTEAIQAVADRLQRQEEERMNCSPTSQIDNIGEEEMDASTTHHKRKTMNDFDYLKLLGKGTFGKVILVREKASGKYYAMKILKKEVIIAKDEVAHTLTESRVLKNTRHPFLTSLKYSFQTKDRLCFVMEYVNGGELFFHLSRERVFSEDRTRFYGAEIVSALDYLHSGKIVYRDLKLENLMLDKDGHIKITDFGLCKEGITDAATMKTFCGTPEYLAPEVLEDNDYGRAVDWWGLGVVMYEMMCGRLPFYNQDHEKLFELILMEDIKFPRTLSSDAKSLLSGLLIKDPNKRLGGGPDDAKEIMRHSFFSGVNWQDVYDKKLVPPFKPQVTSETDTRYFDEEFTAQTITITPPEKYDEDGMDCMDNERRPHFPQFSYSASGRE
T2 sequence (O75116 11-552 limits assumed): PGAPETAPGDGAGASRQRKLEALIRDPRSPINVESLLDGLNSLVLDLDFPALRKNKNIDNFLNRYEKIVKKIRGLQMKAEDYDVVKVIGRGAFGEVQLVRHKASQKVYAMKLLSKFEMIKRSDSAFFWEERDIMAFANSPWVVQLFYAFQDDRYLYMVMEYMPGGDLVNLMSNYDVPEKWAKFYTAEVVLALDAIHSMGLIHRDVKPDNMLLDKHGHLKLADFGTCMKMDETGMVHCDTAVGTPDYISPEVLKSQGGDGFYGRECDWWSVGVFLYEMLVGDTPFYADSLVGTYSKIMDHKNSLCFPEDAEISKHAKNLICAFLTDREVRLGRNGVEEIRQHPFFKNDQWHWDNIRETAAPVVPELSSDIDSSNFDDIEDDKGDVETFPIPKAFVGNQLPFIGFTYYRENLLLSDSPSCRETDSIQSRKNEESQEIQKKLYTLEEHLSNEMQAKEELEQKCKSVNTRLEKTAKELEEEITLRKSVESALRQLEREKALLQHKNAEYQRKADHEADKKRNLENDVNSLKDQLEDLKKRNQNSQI

SMILES: CSc1ccc(CN2CCC[C@@H](Nc3ccc4[nH]ncc4c3)C2)cc1 [Compound 1.074, (R)-N-(1-(4-(methylthio)benzyl)piperidin-3-yl)-1H-indazol-5-amine]
- IL-6, % (human monocytes): 96.0%
- Ki (p70S6K human enzyme; [5]): 548 nM
- Ki (p70S6K human enzyme; [6]): 548 nM
- concentration at 15 min [1]: 506 nM
- Ki (ROCK2; [7]): 4.1 nM
- Ki (ROCK2; average Ki, read-out: ROCK2 Ki): 4.1 nM
- Percent of PDGF Induced Proliferation at 1 μM Avg ([2]; 1 μM test compound): 79.9%
- Percent of PDGF Induced Proliferation at 10 μM Avg ([2]; 10 μM test compound): 46.9%
- Ki (ROCK1; Avg, 10 μM ATP): 40.1 nM
- Ki (ROCK1; average Ki): 40.1 nM
- Ki (Akt3 human enzyme; [8]): 437 nM
- Ki (Akt3 human enzyme; average Ki, read-out: Akt3 Ki): 437 nM
- Vz_F ([3]; mean n = 3): 45.7 L/kg
- AUC(0-t) ([3]; male, CD Sprague Dawley, mean n = 3): 1.17 µM·h
- Cmax ([3]; male, CD Sprague Dawley, mean n = 3, read-out: Cmax): 735 nM
- Tmax ([3]; male, CD Sprague Dawley, mean n = 3, read-out: Tmax): 25.2 min

SMILES: Cc1ccc(CN2CCC[C@@H](Nc3ccc4[nH]ncc4c3)C2)cc1OCCO [Compound 1.161, (R)-2-(5-((3-(1H-indazol-5-ylamino)piperidin-1-yl)methyl)-2-methylphenoxy)ethanol]
- log10AUC (Penh) [4]: 2.0405
- airway hyperreactivity [4]: prevention of airway hyperreactivity
- Ki (p70S6K human enzyme; [5]): 129 nM
- Ki (p70S6K human enzyme; [6]): 129 nM
- activity at 1 µM (IRAK1): 106%
- activity at 10 µM (IRAK1): 99%
- activity at 1 µM (IRAK4; 1 μM test compound, read-out: IRAK4 Percent inhibition, 1 μM): 96%
- activity at 10 µM (IRAK4; 10 μM test compound, read-out: IRAK4 Percent inhibition, 10 μM): 109%
- Ki (ROCK2; [7]): 2.5 nM
- Ki (ROCK2; average Ki, read-out: ROCK2 Ki): 2.5 nM
- activity at 1 µM (Mnk2): 108%
- activity at 10 µM (Mnk2): 106%
- ERK2 Percent inhibition, 1 μM (ERK2): 104%
- ERK2 Percent inhibition, 10 μM (ERK2): 92%
- Ki (ROCK1; Avg, 10 μM ATP): 9.9 nM
- Ki (ROCK1; average Ki): 9.9 nM
- Ki (Akt3 human enzyme; [8]): 63.5 nM
- Ki (Akt3 human enzyme; average Ki, read-out: Akt3 Ki): 63.5 nM
- GCK Percent inhibition, 1 μM (GCK): 96%
- activity at 10 µM (GCK): 91%

SMILES: NC(=O)Cn1ccc2ccc(CN3CC[C@@H](Nc4cccc5cnccc45)C3)cc21 [Compound 2.058, (R)-2-(6-((3-(isoquinolin-5-ylamino)pyrrolidin-1-yl)methyl)-1H-indol-1-yl)acetamide]
- IL-6, % (human monocytes): 1.3%
- Ki (p70S6K human enzyme; [5]): 213 nM
- Ki (p70S6K human enzyme; [6]): 213 nM
- concentration at 15 min [1]: 194 nM
- Ki (ROCK2; [7]): 3.3 nM
- Ki (ROCK2; average Ki, read-out: ROCK2 Ki): 3.3 nM
- Ki (ROCK1; Avg, 10 μM ATP): 15.3 nM
- Ki (ROCK1; average Ki): 15.3 nM
- Ki (Akt3 human enzyme; [8]): 1940 nM
- Ki (Akt3 human enzyme; average Ki, read-out: Akt3 Ki): 1940 nM

SMILES: OCCn1ccc2cc(CN3CC[C@@H](Nc4cccc5cnccc45)C3)ccc21 [Compound 2.066, (R)-2-(5-((3-(isoquinolin-5-ylamino)pyrrolidin-1-yl)methyl)-1H-indol-1-yl)ethanol]
- log10AUC (Penh) [4]: 2.0248
- airway hyperreactivity [4]: prevention of airway hyperreactivity
- activity at 1 µM (ERK1; 1 μM test compound, 10 μM ATP, read-out: ERK1 Percent inhibition, 1 μM): 52%
- inhibition at 1 µM (ERK1; 1 μM, read-out: ERK1 inhibited): ~50%
- activity at 10 µM (ERK1; 10 μM test compound, 10 μM ATP, read-out: ERK1 Percent inhibition, 10 μM): 15%
- Ki (p70S6K human enzyme; [5]): 368 nM
- Ki (p70S6K human enzyme; [6]): 368 nM
- activity at 1 µM (IRAK1): 74%
- activity at 10 µM (IRAK1): 32%
- Ki (ROCK2; [7]): 2.3 nM
- Ki (ROCK2; average Ki, read-out: ROCK2 Ki): 2.3 nM
- activity at 1 µM (Mnk2): 99%
- activity at 10 µM (Mnk2): 54%
- ERK2 Percent inhibition, 1 μM (ERK2): 50%
- ERK2 Percent inhibition, 10 μM (ERK2): 12%
- inhibition at 1 µM (ERK2; 1 μM, read-out: ERK2 inhibited): ~50%
- Ki (ROCK1; Avg, 10 μM ATP): 10.2 nM
- Ki (ROCK1; average Ki): 10.2 nM
- Ki (Akt3 human enzyme; [8]): 2510 nM
- Ki (Akt3 human enzyme; average Ki, read-out: Akt3 Ki): 2510 nM
- GCK Percent inhibition, 1 μM (GCK): 39%
- activity at 10 µM (GCK): 7%
